We go through 15 molecules from paper PMC9000570, “Thiazole/Thiadiazole/Benzothiazole Based Thiazolidin-4-One Derivatives as Potential Inhibitors of Main Protease of SARS-CoV-2” (Molecules, 2022).

pIC50: −log10 of the molar value.

One data set has as its target SARS-CoV-2 3CL protease (Severe acute respiratory syndrome coronavirus 2, UniProt P0DTD1). The experiment in a line: biochemical. The format is biochemical. The conditions noted are these: for pIC50: dose range 0.005 to 50 µM.
Data set [1] deals with feline infectious peritonitis. To be noted: upon treatment of FIP in cats; cited from earlier work.
Another data set has as its system human normal MRC-5 cells. Nature of the data set: MTT cell viability assay. The conditions noted are these: 48 h. The format is cell-based.

For “3-(5,6-dichlorobenzo[d]thiazol-2-yl)-2-(4-fluorophenyl)thiazolidin-4-one [a3]”, the % Inhibition (as a rule, the change of the read-out against control, counted positive when it falls) at 50 μM at SARS-CoV-2 3CL protease (50 μM compound) came to 0%. The pIC50 (in general, the negative decadic logarithm of the IC50, by convention in mol/L) against SARS-CoV-2 3CL protease is less than 4.30.

With `CC(C)CC(NC(=O)OCc1ccccc1)C(=O)NC(CC1CCNC1=O)C(O)S(=O)(=O)O` (stereo not drawn) [GC376], in data set [1], the side effects result was “subcutaneous fibrosis, transient stinging at the injection sites, hair loss, and abnormal eruption of permanent teeth in juvenile cats”.

Consider `O=C1CSC(c2c(F)cccc2F)N1c1nc2cccc(Cl)c2s1` (stereo not drawn) [a1], for which the inhibition (usually the change of the read-out against control, counted positive when it falls) at 50 µM against SARS-CoV-2 3CL protease (50 μM compound) came out at 0%. Also, the pIC50 at SARS-CoV-2 3CL protease was less than 4.30.

In turn, `O=C1CSC(c2c(F)cccc2Cl)N1c1nc2cccc(Cl)c2s1` (stereo not drawn) [a2] registered an inhibition at 50 µM on SARS-CoV-2 3CL protease (50 μM compound) of 91.3%. For the same molecule, the “inhibition of cellular viability” value in the data set on human normal MRC-5 cells (MRC-5, 0.01 μM) came to 68.5%; in the data set on human normal MRC-5 cells (MRC-5, 0.1 μM) it was 78.4%; in the data set on human normal MRC-5 cells (MRC-5, 1 μM), 95.5%; in the data set with human normal MRC-5 cells (MRC-5, 10 μM), 100%.

On SARS-CoV-2 3CL protease (50 μM compound), `O=C1CSC(c2ccc(F)cc2)N1c1nc2ccc(F)cc2s1` (stereo not drawn) [b1] returned an inhibition at 50 µM of 0%. The pIC50 against SARS-CoV-2 3CL protease is less than 4.30.

Regarding `O=C1CSC(c2ccc(F)cc2)N1c1nc2ccc(Cl)cc2s1` (stereo not drawn) [c1], on SARS-CoV-2 3CL protease (50 μM compound), 50 µM produced 88% inhibition. In addition, the pIC50 at SARS-CoV-2 3CL protease is 5.32. The “inhibition of cellular viability” value was 31.0% in the data set with human normal MRC-5 cells (MRC-5, 0.01 μM); 43,0% with human normal MRC-5 cells (MRC-5, 0.1 μM); 36.1% in the data set with human normal MRC-5 cells (MRC-5, 1 μM); 80.3% with human normal MRC-5 cells (MRC-5, 10 μM).

In the case of `O=C1CSC(c2ccc(O)cc2)N1c1nc2ccc(Cl)cc2s1` (stereo not drawn) [c5], at SARS-CoV-2 3CL protease, the “inhibitory activity on main protease (in words)” value is “inactive” and the negative logarithm of the IC50 (pIC50) is less than 4.30. This molecule also registered an inhibition at 50 µM against SARS-CoV-2 3CL protease (50 μM compound) of 7.87%.

`O=C1CSC(c2ccc(F)cc2)N1c1nc2c(Cl)cccc2s1` (stereo not drawn) [d1] yielded an inhibition at 50 µM on SARS-CoV-2 3CL protease (50 μM compound) of 6.72%. For the same molecule, the pIC50 at SARS-CoV-2 3CL protease was less than 4.30.

For the molecule `COc1cccc2sc(N3C(=O)CSC3c3ccc([N+](=O)[O-])cc3)nc12` (stereo not drawn) [e2], testing at 50 µM at SARS-CoV-2 3CL protease (50 μM compound) gave an inhibition of 31.3%. This molecule also gave a pIC50 at SARS-CoV-2 3CL protease of less than 4.30.

Regarding `O=C1CSC(c2ccc(F)cc2)N1c1nc2ccc(OC(F)(F)F)cc2s1` (stereo not drawn) [h6], on SARS-CoV-2 3CL protease (50 μM compound), the inhibition at 50 µM was 25.2%. Further, the negative-log IC50 (pIC50) against SARS-CoV-2 3CL protease is less than 4.30.

As to `O=C1CSC(c2ccc(Cl)cc2)N1c1nc2ccc(OC(F)(F)F)cc2s1` (stereo not drawn) [h8], testing at 50 µM at SARS-CoV-2 3CL protease (50 μM compound) gave an inhibition of 3.04%. At SARS-CoV-2 3CL protease, this molecule showed a pIC50 of less than 4.30.

For the molecule `N#Cc1ccc2nc(N3C(=O)CSC3c3c(F)cccc3Cl)sc2c1` (stereo not drawn) [k3], 50 µM produced 100% inhibition against SARS-CoV-2 3CL protease (50 μM compound). Moreover, on SARS-CoV-2 3CL protease, the negative logarithm of the IC50 (pIC50) was 8.00. The “inhibition of cellular viability” value with human normal MRC-5 cells (MRC-5, 0.01 μM) is given as 57%; with human normal MRC-5 cells (MRC-5, 0.1 μM), 64%; with human normal MRC-5 cells (MRC-5, 1 μM) it was 100%; with human normal MRC-5 cells (MRC-5, 10 μM), 100%.

`O=C1CSC(c2c(F)cccc2Cl)N1c1nc2ccc(C34CC5CC(CC(C5)C3)C4)cc2s1` (stereo not drawn) [m2] displayed an inhibition at 50 µM against SARS-CoV-2 3CL protease (50 μM compound) of 2.79%. In addition, the negative-log IC50 (pIC50) against SARS-CoV-2 3CL protease is less than 4.30.

For the molecule `O=C1CSC(c2ccc(Br)cc2)N1c1nc2ccc(C34CC5CC(CC(C5)C3)C4)cc2s1` (stereo not drawn) [m11, 3-(6-(adamantan-1-yl)benzo[d]thiazol-2-yl)-2-(4-bromophenyl)thiazolidin-4-one], the melting point (as a rule, the temperature, or range, at which the solid turns liquid) was in the range of 275 to 276 °C. At SARS-CoV-2 3CL protease, the “inhibitory activity on main protease (in words)” value is given as “moderate activity” and the negative-log IC50 (pIC50) is less than 4.30. The same molecule gave an inhibition at 50 µM at SARS-CoV-2 3CL protease (50 μM compound) of 45%. For the same molecule, the “inhibition of cellular viability” value in the data set with human normal MRC-5 cells (MRC-5, 0.01 μM) is 65.0%. Moreover, the “inhibition of cellular viability” value with human normal MRC-5 cells (MRC-5, 0.1 μM) stood at 81.3%. The “inhibition of cellular viability” value in the data set with human normal MRC-5 cells (MRC-5, 1 μM) came to 89.4%. For the same molecule, the “inhibition of cellular viability” value in the data set with human normal MRC-5 cells (MRC-5, 10 μM) is 100%.

For the molecule `Cc1cc(C23CC4CC(CC(C4)C2)C3)cc2sc(N3C(=O)CSC3c3c(F)cccc3F)nc12` (stereo not drawn) [n2], at 50 µM the inhibition at SARS-CoV-2 3CL protease (50 μM compound) was 100%. For the same molecule, the negative logarithm of the IC50 (pIC50) against SARS-CoV-2 3CL protease is 5.00. Also, the “inhibition of cellular viability” value is reported as 20.8% with human normal MRC-5 cells (MRC-5, 0.01 μM); 73.4% in the data set with human normal MRC-5 cells (MRC-5, 0.1 μM); 90.7% in the data set with human normal MRC-5 cells (MRC-5, 1 μM); 100% in the data set on human normal MRC-5 cells (MRC-5, 10 μM).
